According to patent US20080207748A1, “VITAMIN C PREPARATION” (INNOVATION LABS, INC., priority 2007, published 2008):

How the values were obtained:
[1] = test system: H9 cells, a human T-cell line; test: Vitamin C absorption (uptake) in H9 cells; assay type: cell-based; settings: 50 μM
Method: The rate of vitamin C absorption in H9 cells, a human T-cell line, was determined for the formulation of Example 1 and other vitamin C formulations.
At the times indicated in FIG. 1, cells were harvested and measured for vitamin C and protein content. The cellular vitamin C levels of the cells were measured using the 2,4-dinitrophenylhydrazine spectrophotometric technique (Bessey et al., 1947).

[2] = test system: human T-lymphoblastic H9 cell line; test: Inhibition of PHA- or bifenthrin-induced homotypic T-lymphocyte aggregation; assay type: cell-based; settings: H9 cells, 0.5 μM vitamin C form, 30 minutes at 37° C.; for homotypic aggregation (aggregate size), activator: None: no activator
Method: The ability to inhibit pesticide-induced T-lymphocyte aggregation was determined for the formulation of Example 1 and other vitamin C formulations.
The human T-lymphoblastic H9 cell line was incubated with vehicle (-) or with one of two activators of T-lymphocyte aggregation, phytohemagglutinin (PHA; […]) or bifenthrin ([…]). […] After treatment, the ability of each formulation to inhibit homotypic aggregation was measured by counting aggregate size at 400× magnification.

[3] = test system: Plasma C-Reactive Protein; test: Human plasma C-reactive protein after single oral dose; assay type: in vivo; settings: for Plasma C-Reactive Protein Change: 0 vs 24 hrs
Method: (§1) The human serum vitamin C, plasma C-reactive protein, oxidized LDL, and urine uric and oxalate levels were determined for the formulation of Example 1 and other vitamin C formulations.
(§2) Healthy volunteers maintained a low vitamin C diet for 14 days. […] Blood samples were collected immediately prior to the oral dose administration and at various time points post ingestion. Urine was collected over a 24-hour time period and saved for oxalate and uric acid assays. Serum vitamin C levels were measured by HPLC with coulometric electrochemical detection. Plasma C-reactive protein and oxidized LDL were measured by enzyme linked immunosorbent assay (ELISA) and urine uric acid and oxalate levels were measured by enzymatic methods.

Plasma OxLDL = test: Human plasma oxidized LDL after single oral dose; assay type: in vivo; settings: for Plasma OxLDL Change: 0 vs 24 hrs
Method: as §1, §2

[4] = Human serum vitamin C levels after single oral dose; assay type: in vivo
Method: as §1, §2

[5] = Human urine uric acid after single oral dose; assay type: in vivo; settings: single oral dose 1000 mg, urine collected over 24 hours
Method: as §1, §2

[6] = Human urine oxalate after single oral dose; assay type: in vivo; settings: single oral dose 1000 mg, urine collected over 24 hours
Method: as §1, §2

[7] = 0 hrs (immediately prior to oral dose)
[8] = single oral dose 1000 mg, 24 hrs

Compound | cellular vitamin C levels (peak) ([1]; at approximately two hours) [nmol/mg protein] | cellular vitamin C levels ([1]; at fifteen minutes) [nmol/mg protein] | homotypic aggregation (aggregate size), activator: PHA [2] | homotypic aggregation (aggregate size), activator: Bifenthrin [2] | homotypic aggregation (aggregate size), activator: None [2] | Plasma C-Reactive Protein [3, 7] [ng/mL] | Plasma C-Reactive Protein Change [3] [ng/mL] | Plasma C-Reactive Protein [3, 8] [ng/mL] | Plasma OxLDL Change (Plasma OxLDL) [U/ml] | Serum Vitamin C Levels ([4]; 0 hrs (immediately prior to single oral dose of 1000 mg)) [mg/dL] | Serum Vitamin C Levels ([4]; single oral dose 1000 mg, 1 hr post-admin) [mg/dL] | Serum Vitamin C Levels ([4]; single oral dose 1000 mg, 2 hrs post-admin) [mg/dL] | Serum Vitamin C Levels ([4]; single oral dose 1000 mg, 4 hrs post-admin) [mg/dL] | Serum Vitamin C Levels ([4]; single oral dose 1000 mg, 6 hrs post-admin) [mg/dL] | Serum Vitamin C Levels ([4]; single oral dose 1000 mg, 24 hrs post-admin) [mg/dL] | Plasma OxLDL (Plasma OxLDL; [7]) [U/ml] | Plasma OxLDL (Plasma OxLDL; [8]) [U/ml] | Urine Markers: Uric Acid [5] [mg/dL] | Urine Markers: Oxalate [6] [mg/dL]
O=C1O[C@H]([C@@H](O)CO)C(O)=C1O [AA, ascorbic acid] | 31 | 7±1.4 | 75 ± 12 | 130 ± 5 | 9 ± 4 | 129.75 ± 26 | 12.75 | 117.00 ± 33 | 0.89 | – | – | – | – | – | – | – | – | – | –
calcium ascorbate [CaA] | – | – | 110 ± 10 | 137 ± 8 | 12 ± 4 | 189.17 ± 41 | 8.34 | 180.83 ± 43 | 3.78 | 0.50 ± 0.05 | 0.88 ± 0.10 | 1.12 ± 0.17 | 1.03 ± 0.13 | 1.0 ± 0.13 | 0.59 ± 0.09 | 60.56 ± 5 | 57.67 ± 6 | 39.75 ± 10.5 | 17.8 ± 2.6
